{"source": "paper PMC5613053", "about": "(Investigational New Drugs, 2017)", "key": {"phospho-STAT5": {"test_system": "phospho-STAT5", "test": "Immunoblot for phosphorylated STAT5 / STAT5 in MV4-11 xenograft tumors", "assay_type": "in vivo, mice", "details": "for Phospho-STAT5, % of baseline levels: 3 mg/kg", "source_text": "Detailed protocols can be found in the online resource.\nAfter 1 month, mice were divided into groups, with each group having approximately the same mean tumor volume.\nMV4-11 xenograft tumor protein samples were electrophoresed on 7.5% gels, transferred to PVDF membranes, and probed for phosphorylated-STAT and total STAT5 as described earlier with one alteration. Following detection of phosphorylated STAT5, the membrane was stripped using Restore™ Western Blot Stripping Buffer (Thermo Fisher Scientific) and then re-probed for total STAT5. Phosphorylation levels were normalized to total STAT5 levels in each group (3 mice/group) relative to the mean value of the control group (4 mice/group). Data are reported as mean ± SEM."}, "MV4–11-luc cells": {"test_system": "MV4–11-luc cells", "test": "Intra-bone marrow transplantation (IBMT) model", "assay_type": "in vivo, mice", "experimental": "In the intra-bone marrow transplantation (IBMT) model, MV4–11-luc cells (1 × 10^6 cells/mouse) were injected into the bone marrow of the left tibia of female NOD-SCID mice (day 0) following the protocol detailed by Lee et al.. Tumor growth was monitored by bioluminescent imaging of the whole body with an IVIS Spectrum (PerkinElmer, Waltham, MA). […] Tumor growth was monitored once a week during the dosing period and then every other week until day 100. Survival was also monitored daily until day 168."}, "p-ERK": {"test_system": "p-ERK", "test": "Immunoblot of downstream FLT3 targets in MV4-11 cells", "assay_type": "cell-based", "details": "Homo sapiens", "experimental": "(§1) FLT3 immunoprecipitation and immunoblotting for all targets were performed following standard protocols. Detailed methods are provided in the online resource.\n(§2) Cells were treated for 2 h prior to cell lysate preparation in RIPA buffer supplemented with phosphatase / protease inhibitors. Following sample preparation, protein lysates were electrophoresed on 7.5% gels and transferred to PVDF membranes.\n(§3) All membranes were blocked using either Blocking One or Blocking One-P (Nacalai Tesque Inc., Kyoto, Japan) for 1 h prior to an overnight incubation with primary antibody. Membranes were incubated overnight at 4°C with one of the following antibodies: anti-FLT3 antibody (Abcam), anti-phosphorylated pan-tyrosine, anti-ERK, anti-phospho-ERK, anti-STAT5, anti-phospho-STAT5, anti-AKT, anti-phospho-AKT, anti-AXL, anti-phospho-AXL, or anti-actin. The membranes were then washed with 1× TBS Tween-20 (TBS-T) Buffer (Thermo Fisher Scientific Inc., Rockford, IL) and incubated with an appropriate HRP-linked secondary antibody (Cell Signaling Technology) for 1 h at room temperature. After a final wash, ECL Western Blotting Detection Reagent ECL-prime (GE Healthcare, Fairfield, CT) were applied to the membranes and signals were detected with a CCD camera (ImageQuant LAS4000; GE Healthcare). Signal intensity was then quantified using ImageQuant™ TL software (GE Healthcare). The study was performed once in triplicate, and the mean percentage of phosphorylated protein to total protein relative to that in vehicle-treated cells was calculated."}, "p-STAT5": {"test_system": "p-STAT5", "test": "Immunoblot of downstream FLT3 targets in MV4-11 cells", "assay_type": "cell-based", "details": "Homo sapiens", "experimental": "as §1, §2, §3"}, "p-AKT": {"test_system": "p-AKT", "test": "Immunoblot of downstream FLT3 targets in MV4-11 cells", "assay_type": "cell-based", "details": "Homo sapiens", "experimental": "as §1, §2, §3"}, "[1]": {"test_system": "Ba/F3 cells expressing FLT3-ITD-F691I", "test": "CellTiter-Glo cell viability", "assay_type": "cell-based", "details": "Mus musculus, BaF3, 48 h; 2 days of treatment; read-out: Cell growth inhibition IC50", "experimental": "(§4) A detailed protocol is provided in the online resource.\n(§5) To examine the effect of ASP2215 on cell viability, MV4-11, MOLM-13, and Ba/F3 cells expressing either FLT3-ITD, FLT3-D835Y, FLT3-ITD-D835Y, FLT3-ITD-F691L or FLT3-ITD-F691I were seeded into 96-well white plates (Nunc F96 MicroWell™ Plates, white; Thermo Fisher Scientific Inc., Waltham, MA) at 1000 cells/well in Iscove’s Modified Dulbecco’s Medium, 500 cells/well in RPMI 1640 or 1000 cells/well in RPMI 1640, respectively. All cell lines were cultured overnight in a humidified incubator at 37°C with 5% CO2 in media supplemented with 10% heat-inactivated FBS.\n(§6) After treatment, the CellTiter-Glo® Luminescent Cell Viability Assay (Promega) was used according to the manufacturer’s instructions and luminescence was measured using an ARVO-HTS plate reader (Perkin Elmer Inc., Waltham, MA). The assay was performed in either triplicate or quadruplicate. […] The geometric mean was calculated from three individual experiments.\n(§7) The mutants of FLT3 (NM_004119), FLT3-D835Y (gat to tat), FLT3-ITD (insertion of […] at 1799 position of CDS), FLT3-ITD-F691I (ttt to att), FLT3-ITD-F691L (ttt to ctt), FLT3-ITD-D835Y were encoded into pMX-puro vector (Cell Biolabs, Inc., San Diego, CA), and transfected with FuGENE-HD (Promega) into Platinum-E cells. […]"}, "[2]": {"test_system": "Ba/F3 cells expressing FLT3-ITD-F691 L", "test": "CellTiter-Glo cell viability", "assay_type": "cell-based", "details": "Mus musculus, BaF3, 48 h; 2 days of treatment; read-out: Cell growth inhibition IC50", "experimental": "as §4, §5, §6, §7"}, "[3]": {"test": "Pharmacokinetics in MV4–11 xenografted nude mice (plasma and tumor)", "assay_type": "in vivo", "details": "for AUC(0-t) / Cmax / Tmax: nude, mouse; for AUC(0-t): read-out: AUCt, plasma concentration; for Tmax: read-out: Time of maximal plasma concentration", "experimental": "Tumor samples were also collected from each mouse and tumor weight was measured."}, "[4]": {"details": "read-out: Kinase inhibition at the specified gilteritinib concentration (%), 0.1 nM, 2 h"}, "[5]": {"details": "read-out: Kinase inhibition at the specified gilteritinib concentration (%), 1 nM, 2 h"}, "[6]": {"details": "read-out: Kinase inhibition at the specified gilteritinib concentration (%), 10 nM, 2 h"}}, "note": "Read-outs that look alike come from different tables or passages of the source.", "data": [{"compound": "CCc1nc(C(N)=O)c(Nc2ccc(N3CCC(N4CCN(C)CC4)CC3)c(OC)c2)nc1NC1CCOCC1", "note": "[gilteritinib]", "values": [{"measurement": "Phospho-STAT5, % of baseline levels", "setting": "phospho-STAT5; 4 h and 8 h", "result": "< 20", "unit": "%"}, {"measurement": "Phospho-STAT5, % of baseline levels", "setting": "phospho-STAT5; 24 h", "result": "approximately 50%"}, {"measurement": "Phosphorylation level of STAT5 in tumors", "setting": "phospho-STAT5; 4 h and 8 h after single dose of 6 mg/kg or 10 mg/kg", "result": "almost completely abolished"}, {"measurement": "STAT5 phosphorylation level, % of baseline", "setting": "phospho-STAT5; 24 h post drug, 6 mg/kg or 10 mg/kg", "result": "~20", "unit": "%"}, {"measurement": "Survival", "setting": "MV4–11-luc cells; 30 mg/kg once daily day 15–70, monitored until day 168, n = 10", "result": "all treated mice survived to day 168"}, {"measurement": "MV4–11 cell infiltration", "setting": "MV4–11-luc cells; 30 mg/kg once daily, whole-body imaging", "result": "no evidence of cell infiltration"}, {"measurement": "activity at 0.0001 µM", "setting": "p-ERK; [4]", "result": 54, "unit": "%"}, {"measurement": "activity at 0.001 µM", "setting": "p-ERK; [5]", "result": 22, "unit": "%"}, {"measurement": "activity at 0.01 µM", "setting": "p-ERK; [6]", "result": 1, "unit": "%"}, {"measurement": "activity at 0.0001 µM", "setting": "p-STAT5; [4]", "result": 114, "unit": "%"}, {"measurement": "activity at 0.001 µM", "setting": "p-STAT5; [5]", "result": 23, "unit": "%"}, {"measurement": "activity at 0.01 µM", "setting": "p-STAT5; [6]", "result": 0, "unit": "%"}, {"measurement": "activity at 0.0001 µM", "setting": "p-AKT; [4]", "result": 65, "unit": "%"}, {"measurement": "activity at 0.001 µM", "setting": "p-AKT; [5]", "result": 48, "unit": "%"}, {"measurement": "activity at 0.01 µM", "setting": "p-AKT; [6]", "result": 9, "unit": "%"}, {"measurement": "IC50", "setting": "[1]", "result": 49, "unit": "nM"}, {"measurement": "IC50", "setting": "[2]", "result": 22, "unit": "nM"}, {"measurement": "AUC(0-t)", "setting": "[3]; plasma, single oral 1 mg/kg", "result": 25.2, "unit": "ng·h/mL"}, {"measurement": "Cmax", "setting": "[3]; plasma, single oral 1 mg/kg, read-out: Cmax, plasma concentration", "result": 6.56, "unit": "ng/mL"}, {"measurement": "Tmax", "setting": "[3]; plasma, single oral 1 mg/kg", "result": 2, "unit": "h"}, {"measurement": "AUC(0-t)", "setting": "[3]; plasma, single oral 6 mg/kg", "result": 269, "unit": "ng·h/mL"}, {"measurement": "Cmax", "setting": "[3]; plasma, single oral 6 mg/kg, read-out: Cmax, plasma concentration", "result": 45.9, "unit": "ng/mL"}, {"measurement": "Tmax", "setting": "[3]; plasma, single oral 6 mg/kg", "result": 2, "unit": "h"}, {"measurement": "AUC(0-t)", "setting": "[3]; plasma, single oral 10 mg/kg", "result": 493, "unit": "ng·h/mL"}, {"measurement": "Cmax", "setting": "[3]; plasma, single oral 10 mg/kg, read-out: Cmax, plasma concentration", "result": 83, "unit": "ng/mL"}, {"measurement": "Tmax", "setting": "[3]; plasma, single oral 10 mg/kg", "result": 2, "unit": "h"}, {"measurement": "Cmax", "setting": "[3]; tumor, single oral 1 mg/kg, read-out: Cmax, intratumor concentration", "result": 90.6, "unit": "ng/g"}, {"measurement": "Cmax", "setting": "[3]; tumor, single oral 6 mg/kg, read-out: Cmax, intratumor concentration", "result": 772, "unit": "ng/g"}, {"measurement": "Cmax", "setting": "[3]; tumor, single oral 10 mg/kg, read-out: Cmax, intratumor concentration", "result": 1120, "unit": "ng/g"}, {"measurement": "Concentration in tumors compared with plasma", "setting": "[3]; single oral 1, 6, 10 mg/kg, each time point", "result": "higher than that in plasma at each time point"}, {"measurement": "AUCt, intratumor concentration", "setting": "[3]; tumor, single oral 1 mg/kg", "result": 1186, "unit": "ng·h/g"}, {"measurement": "Time of maximal intratumor concentration", "setting": "[3]; tumor, single oral 1 mg/kg", "result": 4, "unit": "h"}, {"measurement": "AUCt, intratumor concentration", "setting": "[3]; tumor, single oral 6 mg/kg", "result": 12880, "unit": "ng·h/g"}, {"measurement": "Time of maximal intratumor concentration", "setting": "[3]; tumor, single oral 6 mg/kg", "result": 8, "unit": "h"}, {"measurement": "AUCt, intratumor concentration", "setting": "[3]; tumor, single oral 10 mg/kg", "result": 17330, "unit": "ng·h/g"}, {"measurement": "Time of maximal intratumor concentration", "setting": "[3]; tumor, single oral 10 mg/kg", "result": 8, "unit": "h"}]}]}
